Measured values as given in patent US11427567B2, “Imidazolyl pyrimidinylamine compounds as CDK2 inhibitors” (Incyte Corporation, priority 2019, dated 2022).

target: CDK2/Cyclin E1 (Homo sapiens (Human), UniProt P24941); test: CDK2/Cyclin E1 HTRF enzyme activity assay (Example A); assay type: biochemical; conditions: 1 mM ATP
Experimental: Assays were conducted in white 384-well polystyrene plates in a final reaction volume of 8 μL. […] HTRF signals were read after 1 hour at room temperature on a PHERAstar FS plate reader (BMG Labtech). Data was analyzed with IDBS XLFit and GraphPad Prism 5.0 software using a three or four parameter dose response curve to determine IC50 for each compound.

SMILES	IC50
CCNCc1cc(F)c(-n2cnc(-c3nc(N[C@@H]4CCN(S(C)(=O)=O)C[C@H]4F)ncc3C(F)(F)F)c2)c(Cl)c1 [Example 406, 4-(1-(2-Chloro-4-((ethylamino)methyl)-6-fluorophenyl)-1H-imidazol-4-yl)-N-((3R,4R)-3-fluoro-1-(methylsulfonyl)piperidin-4-yl)-5-(trifluoromethyl)pyrimidin-2-amine]	≤ 50 nM
Cc1nc(-c2nc(N[C@H]3CCN(S(C)(=O)=O)C[C@H]3F)ncc2C(F)(F)F)cn1-c1ccc(CN2CCCC2)cc1F [Example 407, N-((3R,4S)-3-Fluoro-1-(methylsulfonyl)piperidin-4-yl)-4-(1-(2-fluoro-4-(pyrrolidin-1-ylmethyl)phenyl)-2-methyl-1H-imidazol-4-yl)-5-(trifluoromethyl)pyrimidin-2-amine]	≤ 50 nM
Cc1nc(-c2nc(N[C@H]3CCN(S(C)(=O)=O)C[C@H]3F)ncc2C(F)(F)F)cn1-c1ccc(CNC2CC2)cc1F [Example 408]	≤ 50 nM
CN1CCN(Cc2cc(F)c(-n3cnc(-c4nc(NC5CCN(S(C)(=O)=O)CC5)ncc4C(F)(F)F)c3)c(F)c2)CC1=O [Example 409, 4-(3,5-Difluoro-4-(4-(2-((1-(methylsulfonyl)piperidin-4-yl)amino)-5-(trifluoromethyl)pyrimidin-4-yl)-1H-imidazol-1-yl)benzyl)-1-methylpiperazin-2-one]	≤ 50 nM
C[C@]1(O)CCN(Cc2ccc(-n3cnc(-c4nc(N[C@@H]5CCN(S(C)(=O)=O)C[C@H]5F)ncc4C(F)(F)F)c3)c(Cl)c2)C1 [Example 410, (S)-1-(3-Chloro-4-(4-(2-(((3R,4R)-3-fluoro-1-(methylsulfonyl)piperidin-4-yl)amino)-5-(trifluoromethyl)pyrimidin-4-yl)-1H-imidazol-1-yl)benzyl)-3-methylpyrrolidin-3-ol]	≤ 50 nM
C[C@]1(O)CCN(Cc2ccc(-n3cnc(-c4nc(N[C@H]5CCN(S(C)(=O)=O)C[C@H]5F)ncc4C(F)(F)F)c3)c(Cl)c2)C1 [Example 412, (S)-1-(3-Chloro-4-(4-(2-(((3R,4S)-3-fluoro-1-(methylsulfonyl)piperidin-4-yl)amino)-5-(trifluoromethyl)pyrimidin-4-yl)-1H-imidazol-1-yl)benzyl)-3-methylpyrrolidin-3-ol]	≤ 50 nM
CCN(CC)C1CCN(c2ccc(-n3cc(-c4nc(NC5CCN(S(C)(=O)=O)CC5)ncc4C(F)(F)F)nc3C)c(F)c2)CC1 [Example 413, 4-(1-(4-(4-(Diethylamino)piperidin-1-yl)-2-fluorophenyl)-2-methyl-1H-imidazol-4-yl)-N-(1-(methylsulfonyl)piperidin-4-yl)-5-(trifluoromethyl)pyrimidin-2-amine]	≤ 50 nM
Cc1nc(-c2nc(NC3CCN(S(C)(=O)=O)CC3)ncc2C(F)(F)F)cn1-c1ccc(N2CCC(C)(N3CCCC3)CC2)cc1F [Example 414, 4-(1-(2-Fluoro-4-(4-methyl-4-(pyrrolidin-1-yl)piperidin-1-yl)phenyl)-2-methyl-1H-imidazol-4-yl)-N-(1-(methylsulfonyl)piperidin-4-yl)-5-(trifluoromethyl)pyrimidin-2-amine]	≤ 50 nM
Cc1nc(-c2nc(NC3CCN(S(C)(=O)=O)CC3)ncc2C(F)(F)F)cn1-c1ccc(N2CCC(N3CCN(C)CC3)CC2)cc1F [Example 415, 4-(1-(2-Fluoro-4-(4-(4-methylpiperazin-1-yl)piperidin-1-yl)phenyl)-2-methyl-1H-imidazol-4-yl)-N-(1-(methylsulfonyl)piperidin-4-yl)-5-(trifluoromethyl)pyrimidin-2-amine]	≤ 50 nM
Cc1nc(-c2nc(NC3CCN(S(C)(=O)=O)CC3)ncc2C(F)(F)F)cn1-c1ccc(CCN2CCC2)cc1F [Example 416, 4-(1-(4-(2-(Azetidin-1-yl)ethyl)-2-fluorophenyl)-2-methyl-1H-imidazol-4-yl)-N-(1-(methylsulfonyl)piperidin-4-yl)-5-(trifluoromethyl)pyrimidin-2-amine]	≤ 50 nM
Cc1nc(-c2nc(NC3CCN(S(C)(=O)=O)CC3)ncc2C(F)(F)F)cn1-c1ccc(C2CN(C)C2)cc1F [Example 417, 4-(1-(2-Fluoro-4-(1-methylazetidin-3-yl)phenyl)-2-methyl-1H-imidazol-4-yl)-N-(1-(methylsulfonyl)piperidin-4-yl)-5-(trifluoromethyl)pyrimidin-2-amine]	≤ 50 nM
CCN1CC(c2ccc(-n3cc(-c4nc(NC5CCN(S(C)(=O)=O)CC5)ncc4C(F)(F)F)nc3C)c(F)c2)C1 [Example 418, 4-(1-(4-(1-Ethylazetidin-3-yl)-2-fluorophenyl)-2-methyl-1H-imidazol-4-yl)-N-(1-(methylsulfonyl)piperidin-4-yl)-5-(trifluoromethyl)pyrimidin-2-amine]	≤ 50 nM
Cc1nc(-c2nc(NC3CCN(S(C)(=O)=O)CC3)ncc2C(F)(F)F)cn1-c1ccc(C2CN(C[C@H](C)O)C2)cc1F [Example 419, (S)-1-(3-(3-Fluoro-4-(2-methyl-4-(2-((1-(methylsulfonyl)piperidin-4-yl)amino)-5-(trifluoromethyl)pyrimidin-4-yl)-1H-imidazol-1-yl)phenyl)azetidin-1-yl)propan-2-ol]	≤ 50 nM
Cc1nc(-c2nc(NC3CCN(S(C)(=O)=O)CC3)ncc2C(F)(F)F)cn1-c1ccc(C2CN(CCO)C2)cc1F [Example 420, 2-(3-(3-Fluoro-4-(2-methyl-4-(2-((1-(methylsulfonyl)piperidin-4-yl)amino)-5-(trifluoromethyl)pyrimidin-4-yl)-1H-imidazol-1-yl)phenyl)azetidin-1-yl)ethan-1-ol]	≤ 50 nM
Cc1nc(-c2nc(NC3CCN(S(C)(=O)=O)CC3)ncc2C(F)(F)F)cn1-c1ccc(C2CN(C[C@@H](C)O)C2)cc1F [Example 421, (R)-1-(3-(3-Fluoro-4-(2-methyl-4-(2-((1-(methylsulfonyl)piperidin-4-yl)amino)-5-(trifluoromethyl)pyrimidin-4-yl)-1H-imidazol-1-yl)phenyl)azetidin-1-yl)propan-2-ol]	≤ 50 nM
Cc1nc(-c2nc(NC3CCN(S(C)(=O)=O)CC3)ncc2C(F)(F)F)cn1-c1ccc(C2CN(CC3(O)CC3)C2)cc1F [Example 422, 1-((3-(3-Fluoro-4-(2-methyl-4-(2-((1-(methylsulfonyl)piperidin-4-yl)amino)-5-(trifluoromethyl)pyrimidin-4-yl)-1H-imidazol-1-yl)phenyl)azetidin-1-yl)methyl)cyclopropan-1-ol]	≤ 50 nM
Cc1nc(-c2nc(NC3CCN(S(C)(=O)=O)CC3)ncc2C(F)(F)F)cn1-c1ccc(OCCN(C)C)cc1F [Example 423, 4-(1-(4-(2-(Dimethylamino)ethoxy)-2-fluorophenyl)-2-methyl-1H-imidazol-4-yl)-N-(1-(methylsulfonyl)piperidin-4-yl)-5-(trifluoromethyl)pyrimidin-2-amine]	≤ 50 nM
Cc1nc(-c2nc(NC3CCN(S(C)(=O)=O)CC3)ncc2C(F)(F)F)cn1-c1ccc(OCCN2CCCC2)cc1F [Example 424, 4-(1-(2-Fluoro-4-(2-(pyrrolidin-1-yl)ethoxy)phenyl)-2-methyl-1H-imidazol-4-yl)-N-(1-(mehtylsulfonyl)piperidin-4-yl)-5-(trifluoromethyl)pyrimidin-2-amine]	≤ 50 nM
Cc1nc(-c2nc(NC3CCN(S(C)(=O)=O)CC3)ncc2C(F)(F)F)cn1-c1ccc(OC[C@@H]2CCCN2C)cc1F [Example 425, (S)-4-(1-(2-Fluoro-4-((1-methylpyrrolidin-2-yl)methoxy)phenyl)-2-methyl-1H-imidazol-4-yl)-N-(1-(methylsulfonyl)piperidin-4-yl)-5-(trifluoromethyl)pyrimidin-2-amine]	≤ 50 nM
Cc1nc(-c2nc(NC3CCN(S(C)(=O)=O)CC3)ncc2C(F)(F)F)cn1-c1ccc(OC[C@H]2CCCN2C)cc1F [Example 426, (R)-4-(1-(2-Fluoro-4-((1-methylpyrrolidin-2-yl)methoxy)phenyl)-2-methyl-1H-imidazol-4-yl)-N-(1-(methylsulfonyl)piperidin-4-yl)-5-(trifluoromethyl)pyrimidin-2-amine]	≤ 50 nM
CC(C)N1CC(c2ccc(-n3cnc(-c4nc(NC5CCN(S(C)(=O)=O)CC5)ncc4C(F)(F)F)c3)c(C#N)c2)C1 [Example 427, 5-(1-Isopropylazetidin-3-yl)-2-(4-(2-((1-(methylsulfonyl)piperidin-4-yl)amino)-5-(trifluoromethyl)pyrimidin-4-yl)-1H-imidazol-1-yl)benzonitrile]	≤ 50 nM
CN1CC(c2ccc(-n3cnc(-c4nc(NC5CCN(S(C)(=O)=O)CC5)ncc4C(F)(F)F)c3)c(C#N)c2)C1 [Example 428, 5-(1-Methylazetidin-3-yl)-2-(4-(2-((1-(methylsulfonyl)piperidin-4-yl)amino)-5-(trifluoromethyl)pyrimidin-4-yl)-1H-imidazol-1-yl)benzonitrile]	≤ 50 nM
CCN1CC(c2ccc(-n3cnc(-c4nc(NC5CCN(S(C)(=O)=O)CC5)ncc4C(F)(F)F)c3)c(C#N)c2)C1 [Example 429, 5-(1-Ethylazetidin-3-yl)-2-(4-(2-((1-(methylsulfonyl)piperidin-4-yl)amino)-5-(trifluoromethyl)pyrimidin-4-yl)-1H-imidazol-1-yl)benzonitrile]	≤ 50 nM
CN1CCN(c2ccc(-n3cnc(-c4nc(NC5CCN(S(C)(=O)=O)CC5)ncc4C(F)(F)F)c3)c(C#N)c2)CC1 [Example 430, 5-(4-Methylpiperazin-1-yl)-2-(4-(2-((1-(methylsulfonyl)piperidin-4-yl)amino)-5-(trifluoromethyl)pyrimidin-4-yl)-1H-imidazol-1-yl)benzonitrile]	≤ 50 nM
CNCCN(C)c1ccc(-n2cnc(-c3nc(NC4CCN(S(C)(=O)=O)CC4)ncc3C(F)(F)F)c2)c(C#N)c1 [Example 431, 5-(Methyl(2-(methylamino)ethyl)amino)-2-(4-(2-((1-(methylsulfonyl)piperidin-4-yl)amino)-5-(trifluoromethyl)pyrimidin-4-yl)-1H-imidazol-1-yl)benzonitrile]	≤ 50 nM
